Structures can show the parent of a compound that is named as a salt. Where two headings read alike, the source gives them in different places.
Molecular target: human MCH-1 receptor (Homo sapiens (Human), UniProt Q99705)
Assay: Binding Assay for Human Melanin-Concentrating Hormone (MCH-1) Receptor (radioligand displacement, CHO-K1 membranes)
Conditions: for Ki: membranes from CHO-K1 cells expressing human MCH1 receptor, [3H]-labeled radioligand, Ki from IC50 by Cheng Prusoff
Experimental: Evaluation of the affinity of compounds for the human MCH-1 receptor was accomplished using 4-(3,4,5-tritritiumbenzyloxy)-1-(1-(2-(pyrrolidin-1-yl)ethyl)-1H-indazol-5-yl)pyridin-2(1H)-one and membranes prepared from stable CHO-K1 cells expressing the human MCH1 receptor obtained from Euroscreen (Batch 1138). Cell membrane homogenates (8.92 μg protein) were incubated for 60 min at 25° C. with […] of the [^3H]-labeled compound in the absence or presence of the test compound in 50 mM Tris-HCl buffer, pH 7.4. Nonspecific binding was determined in the presence of 50 μM 1-(5-(4-cyanophenyl)bicyclo[3.1.0]hexan-2-yl)-3-(4-fluoro-3-(trifluoromethyl)phenyl)-1-(3-(4-methylpiperazin-1-yl)propyl)urea. Following incubation, the samples were filtered rapidly under vacuum through Skatron 11731 filters, pre-soaked in 0.5% polyethylenimine, and washed with ice-cold 50 mM Tris-HCl buffer, pH 7.4, (wash setting 9,9,0) using a Skatron cell harvester. The filters were counted for radioactivity in a liquid scintillation counter (Tri-Carb 2100TR, Packard) using a scintillation cocktail (Ultima Gold MV, Perkin Elmer).
The results are expressed as a percent inhibition of the control radioligand specific binding. The IC50 value (concentration causing a half-maximal inhibition of control specific binding) and Hill coefficient (nH) were determined by non-linear regression analysis of the competition curve using Hill equation curve fitting. The inhibition constant (Ki) was calculated from the Cheng Prusoff equation: (Ki=IC50/(1+(L/KD)), where L=concentration of radioligand in the assay, and KD=affinity of the radioligand for the receptor.

human MCH-1 receptor, sequence (Q99705 whole entry): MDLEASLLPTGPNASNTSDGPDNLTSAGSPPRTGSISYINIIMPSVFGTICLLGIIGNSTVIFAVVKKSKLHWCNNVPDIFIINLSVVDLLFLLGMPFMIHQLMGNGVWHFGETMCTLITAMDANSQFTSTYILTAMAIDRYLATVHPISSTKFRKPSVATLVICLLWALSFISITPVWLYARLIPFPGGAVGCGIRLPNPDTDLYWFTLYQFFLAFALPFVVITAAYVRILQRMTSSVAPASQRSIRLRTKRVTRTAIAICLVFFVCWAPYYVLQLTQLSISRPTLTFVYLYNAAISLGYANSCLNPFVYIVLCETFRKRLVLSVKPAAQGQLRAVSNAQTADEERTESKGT

Work on `Cc1ccc(-c2ccn(-c3ccc4c5c(n(C)c4c3)CC3CCC5N3)c(=O)c2)cn1` (single isomer, unassigned; enantiomer b) [Example 35, 1-(5-Methyl-5,6,7,8,9,10-hexahydro-7,10-iminocyclohept[b]indol-3-yl)-4-(6-methylpyridin-3-yl)-pyridin-2(1H)-one hydrochloride (Enantiomer B)] yielded a Ki (read-out: MCH-1 Ki) of 59 nM.

Molecule `Cn1c2c(c3ccc(-n4ccc(-c5ccc(C(F)(F)F)nc5)cc4=O)cc31)C1CCC(C2)N1` (single isomer, unassigned; enantiomer b) [Example 36, 1-(5-Methyl-5,6,7,8,9,10-hexahydro-7,10-iminocyclohept[b]indol-3-yl)-4-(6-(trifluoromethyl)pyridin-3-yl)pyridin-2(1H)-one hydrochloride (Enantiomer B)] has a Ki (MCH-1 Ki (nM)) of 5.3 nM.

Work on `CCN1C2CCCC1c1c(n(C)c3cc(-n4ccc(OCc5ccccc5)cc4=O)ccc13)C2` (centres unmarked) [Example 32, 4-(Benzyloxy)-1-(12-ethyl-5-methyl-6,7,8,9,10,11-hexahydro-7,11-imino-5H-cyclooct[b]indol-3-yl)pyridin-2(1H)-one hydrochloride] yielded a Ki (read-out: MCH-1 Ki) of 15 nM.

`Cn1c2c(c3ccc(-n4ccc(-c5ccc(C(F)(F)F)cc5)cc4=O)nc31)C1CCC(C2)N1` (centres unmarked) [Example 50, 1-(10-Methyl-5,6,7,8,9,10-hexahydro-5,8-iminocyclohepta[4,5]pyrrolo[2,3-b]pyridin-2-yl)-4-(4-(trifluoromethyl)phenyl)pyridin-2(1H)-one hydrochloride] showed a Ki (read-out: MCH-1 Ki) of 19 nM.

With `CN1C2CCC1c1c(n(C)c3nc(-n4ccc(OCc5ccccc5)cc4=O)ccc13)C2` (centres unmarked) [Example 42, 4-(Benzyloxy)-1-(10,11-dimethyl-5,6,7,8,9,10-hexahydro-5,8-iminocyclohepta[4,5]pyrrolo[2,3-b]pyridin-2-yl)pyridin-2(1H)-one hydrochloride] the Ki (read-out: MCH-1 Ki) was 27 nM.

With `Cn1c2c(c3ccc(N4CCN(CCc5ccc(Cl)cc5)CC4=O)nc31)C1CCC(C2)N1` (centres unmarked) [Example 46, 4-(4-Chlorophenethyl)-1-(10-methyl-5,6,7,8,9,10-hexahydro-5,8-iminocyclohepta[4,5]pyrrolo[2,3-b]pyridin-2-yl)-piperazin-2-one dihydrochloride] the Ki (read-out: MCH-1 Ki) was 99 nM.

In the case of `O=c1cc(OCc2ccc(F)cn2)ccn1-c1ccc2c3c([nH]c2c1)CC1CCC3N1` (centres unmarked) [Example 9, 4-((5-Fluoropyridin-2-yl)methoxy)-1-(5,6,7,8,9,10-hexahydro-7,10-iminocyclohept[b]indol-3-yl)pyridin-2(1H)-one dihydrochloride], the Ki (read-out: MCH-1 Ki) is reported as 25.3 nM.

In the case of `Cn1c2c(c3ccc(-n4ccc(OCc5ccccc5)cc4=O)cc31)C1CCC(C2)N1` (centres unmarked) [Example 2, 4-(Benzyloxy)-1-(5-methyl-5,6,7,8,9,10-hexahydro-7,10-iminocyclohept[b]indol-3-yl)pyridin-2(1H)-one hydrochloride], the Ki (read-out: MCH-1 Ki) is reported as 10.5 nM.

For `Cn1c2c(c3ccc(-n4ccc(OCc5ccc(Cl)cc5F)cc4=O)nc31)C1CCC(C2)N1` (centres unmarked) [Example 47, 4-(4-Chloro-2-fluorobenzyloxy)-1-(10-methyl-5,6,7,8,9,10-hexahydro-5,8-iminocyclohepta[4,5]pyrrolo[2,3-b]pyridin-2-yl)pyridin-2(1H)-one hydrochloride], the Ki (read-out: MCH-1 Ki) was 14 nM.

`Cn1c2c(c3ccc(-n4ncc(OCc5ccc(F)cn5)cc4=O)cc31)C1CCCC(C2)N1` (centres unmarked) [Example 17, 5-((5-Fluoropyridin-2-yl)methoxy)-2-(5-methyl-6,7,8,9,10,11-hexahydro-7,11-imino-5H-cyclooct[b]indol-3-yl)pyridazin-3(2H)-one hydrochloride] showed a Ki (read-out: MCH-1 Ki) of 28 nM.

Molecule `Cn1c2c(c3ccc(-n4ccc(-c5ccc(C(F)(F)F)cn5)cc4=O)cc31)C1CCC(C2)N1` (single isomer, unassigned; enantiomer b) [Example 16, 1-(5-Methyl-5,6,7,8,9,10-hexahydro-7,10-iminocyclohept[b]indol-3-yl)-4-(5-(trifluoromethyl)pyridin-2-yl)pyridin-2(1H)-one hydrochloride (Enantiomer B)] has a Ki (read-out: MCH-1 Ki) of 14 nM.

Molecule `Cn1c2c(c3ccc(-n4ccc(OCc5ccc(F)cn5)cc4=O)cc31)C1CCC(C2)N1` (single isomer, unassigned; enantiomer a) [Example 25, (+)-4-((5-Fluoropyridin-2-yl)methoxy)-1-(5-methyl-5,6,7,8,9,10-hexahydro-7,10-iminocyclohept[b]indol-3-yl)pyridin-2(1H)-one hydrochloride (Enantiomer A)] has a Ki (MCH-1 Ki (nM)) of 19 nM.

`Cn1c2c(c3ccc(-n4ccc(OCc5ccc(F)cn5)cc4=O)cc31)C1CCC(C2)N1` (single isomer, unassigned; enantiomer b) [Example 24, (−)-4-((5-Fluoropyridin-2-yl)methoxy)-1-(5-methyl-5,6,7,8,9,10-hexahydro-7,10-iminocyclohept[b]indol-3-yl)pyridin-2(1H)-one hydrochloride (Enantiomer B)] showed a Ki (MCH-1 Ki (nM)) of 7.4 nM.

`Cn1c2c(c3ccc(-n4ccc(-c5ccc(C(F)(F)F)nc5)cc4=O)cc31)C1CCC(C2)N1` (centres unmarked) [Example 5, 1-(5-Methyl-5,6,7,8,9,10-hexahydro-7,10-iminocyclohept[b]indol-3-yl)-4-(6-(trifluoromethyl)pyridin-3-yl)pyridin-2(1H)-one dihydrochloride] was tested, and the Ki (read-out: MCH-1 Ki) was 6.5 nM.

For `Cn1c2c(c3ccc(-n4ccc(OCc5ccc(F)cc5F)cc4=O)nc31)C1CCC(C2)N1` (centres unmarked) [Example 45, 4-(2,4-Difluorobenzyloxy)-1-(10-methyl-5,6,7,8,9,10-hexahydro-5,8-iminocyclohepta[4,5]pyrrolo[2,3-b]pyridin-2-yl)pyridin-2(1H)-one hydrochloride], the Ki (read-out: MCH-1 Ki) was 26 nM.

In the case of `Cn1c2c(c3ccc(-n4ccc(OCc5ccc(F)cn5)cc4=O)cc31)C1CCC(C2)N1` (centres unmarked) [Example 6, 4-((5-Fluoropyridin-2-yl)methoxy)-1-(5-methyl-5,6,7,8,9,10-hexahydro-7,10-iminocyclohept[b]indol-3-yl)pyridin-2(1H)-one dihydrochloride], the Ki (read-out: MCH-1 Ki) is reported as 13.5 nM.

For `Cn1c2c(c3ccc(-n4ccc(-c5ccc(C(F)(F)F)nc5)cc4=O)cc31)C1CCC(C2)N1` (single isomer, unassigned; enantiomer a) [Example 37, 1-(5-Methyl-5,6,7,8,9,10-hexahydro-7,10-iminocyclohept[b]indol-3-yl)-4-(6-(trifluoromethyl)pyridin-3-yl)pyridin-2(1H)-one hydrochloride (Enantiomer A)], the inhibition at 1 µM (@ 1 uM test compound, read-out: MCH-1 percent inhibition of control radioligand specific binding) was 72%.

`Cn1c2c(c3ccc(-n4ccc(OCc5ccc(F)cn5)cc4=O)nc31)C1CCC(C2)N1` (centres unmarked) [Example 43, 4-((5-Fluoropyridin-2-yl)methoxy)-1-(10-methyl-5,6,7,8,9,10-hexahydro-5,8-iminocyclohepta[4,5]pyrrolo[2,3-b]pyridin-2-yl)pyridin-2(1H)-one hydrochloride] gave a Ki (read-out: MCH-1 Ki) of 38 nM.

Molecule `Cn1c2c(c3ccc(-n4ccc(OCc5ccc(F)cn5)cc4=O)cc31)C1CCCC(C2)N1` (centres unmarked) [Example 11, 4-((5-Fluoropyridin-2-yl)methoxy)-1-(5-methyl-6,7,8,9,10,11-hexahydro-7,11-imino-5H-cyclooct[b]indol-3-yl)pyridin-2(1H)-one dihydrochloride] has a Ki (read-out: MCH-1 Ki) of 21.3 nM.

`Cn1c2c(c3ccc(-n4ccc(-c5cnc(C(F)(F)F)nc5)cc4=O)cc31)C1CCC(C2)N1` (centres unmarked) [Example 7, 1-(5-Methyl-5,6,7,8,9,10-hexahydro-7,10-iminocyclohept[b]indol-3-yl)-4-(2-(trifluoromethyl)pyrimidin-5-yl)pyridin-2(1H)-one hydrochloride] showed a Ki (read-out: MCH-1 Ki) of 68.1 nM.
